Data reported in ChEMBL document CHEMBL1201862, “PubChem BioAssay data set” (2004).
Calls of active or inactive are those of the source. Cut-off read from the data, not from the text of the source: actives have a measured IC50 and inactives only a lower limit.

Target: Envelope glycoprotein gp160 (Human immunodeficiency virus 1, UniProt Q6QLK5)
Assay: inhibitors of HIV fusion peptide binding, primary screen, biochemical, uHTS, fluorescence dequenching (AID 1986)

Chain of Envelope glycoprotein gp160 (Q6QLK5 whole entry, the tested form may be a part): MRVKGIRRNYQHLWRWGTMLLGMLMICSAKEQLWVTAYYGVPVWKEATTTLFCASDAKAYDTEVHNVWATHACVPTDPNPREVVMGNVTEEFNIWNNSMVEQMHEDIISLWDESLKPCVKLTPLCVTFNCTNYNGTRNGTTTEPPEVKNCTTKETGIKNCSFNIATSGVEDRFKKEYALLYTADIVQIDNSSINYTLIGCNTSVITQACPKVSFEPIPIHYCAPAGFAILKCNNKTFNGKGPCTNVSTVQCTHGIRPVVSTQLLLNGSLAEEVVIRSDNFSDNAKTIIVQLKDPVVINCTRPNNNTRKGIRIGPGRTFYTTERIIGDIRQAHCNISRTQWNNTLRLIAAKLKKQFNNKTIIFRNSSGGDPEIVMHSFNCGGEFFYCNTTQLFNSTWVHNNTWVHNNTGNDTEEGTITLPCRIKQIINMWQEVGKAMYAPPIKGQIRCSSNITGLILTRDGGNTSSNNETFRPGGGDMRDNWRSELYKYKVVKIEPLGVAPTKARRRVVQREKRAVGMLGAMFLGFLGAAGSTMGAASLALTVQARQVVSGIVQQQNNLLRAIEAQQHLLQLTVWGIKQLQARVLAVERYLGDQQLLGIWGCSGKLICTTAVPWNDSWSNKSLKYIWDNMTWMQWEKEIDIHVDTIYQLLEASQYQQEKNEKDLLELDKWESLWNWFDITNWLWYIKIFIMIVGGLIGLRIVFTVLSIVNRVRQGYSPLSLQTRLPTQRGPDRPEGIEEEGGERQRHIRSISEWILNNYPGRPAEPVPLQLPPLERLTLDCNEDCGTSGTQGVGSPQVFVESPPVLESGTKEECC

**Q.** For Cc1ccccc1C(=O)Nc1cccc(C(=O)N/N=C/c2cc(Cl)cc([N+](=O)[O-])c2O)c1, which IC50 is on record?
**A.** 31.3 µM (active)
